# Test results published in US12144850B2, “Methods and compositions for car T cell therapy” (PURDUE RESEARCH FOUNDATION, priority 2016, dated 2024).
# Columns and labels:
# KB (FR+) cells = test: Cytotoxicity assay of CAR T cells in vitro (LDH release), KB; format: cell-based; settings: KB (FR+) model, 100 nM conjugate; FIG. 3D
# Procedure: (§1) In order to test cytotoxicity of CAR T cells with desired FITC-ligands, a standard lactate dehydrogenase (LDH) release assay was performed using a Pierce™ LDH cytotoxicity assay kit from ThermoFisher Scientific. To prepare samples for the LDH assay, cancer cells were seeded at a density of 10^4 cells/100 μL of media in each well of a 96 well plate and grown overnight. CAR T cells were prepared the next day at various numbers to have different effector (CAR T cell):target cell (cancer cell) ratios (e.g. E:T=20:1, 10:1, 5:1 and 1:1). FITC-ligands at various concentrations were introduced into each well and co-cultured for 6-24 hours. After co-incubation, the plate containing CAR T cells and cancer cells was centrifuged at 350×g at room temperature for 10 min to remove cell debris or remaining cells. 50 μL of the supernatants of each sample were then transferred into a new 96 well plate. 50 μL of the prepared LDH reaction mixture was added to the transferred 50 μL of each sample and incubated at room temperature for 30 min. 50 μL of stop solution was added and the absorbance of each sample was measured at 490 nm and 680 nm. The percent of cytotoxicity was calculated for each sample by using the equation below: % Cytotoxicity=(Experimental value−effector cells spontaneous−target cells spontaneous)/(Target cell maximum control−target cell spontaneous control)×100
# LNCaP (PSMA+) cells = test: Cytotoxicity assay of CAR T cells in vitro (LDH release), LNCaP; format: cell-based; settings: LNCaP (PSMA+) model, E:T 10:1, 100 nM conjugate; FIG. 3B
# Procedure: as §1
# HEK293 (NK1R+) cells [1] = test: Cytotoxicity assay of CAR T cells in vitro (LDH release), HEK293; format: cell-based; settings: HEK293 (NK1R+) model, E:T 10:1, 100 nM conjugate; FIG. 3C
# Procedure: as §1
# HEK293 (NK1R+) cells [2] = test: Anti-tumor efficacy of CAR T cells in vivo, HEK293 (NK1R+) xenograft; set-up: species or system mice
# Procedure: (§2) Immunodeficient NSG mice (Jackson Laboratory) were used to identify the efficacy of CAR T cell anti-tumor activity in vivo. Each tumor-specific antigen expressing cancer cell line was subcutaneously injected into the shoulder of NSG mice to establish solid tumor xenografts. When tumor volume of around 50-100 mm^3 was reached, CAR T cells were introduced into mice bearing tumors and desired FITC-ligands were also introduced (i.v.) every other day. Control mice were administered PBS instead of FITC-ligands. Tumor volume and cytokine levels in the blood (IL2, IL6, IL10, IFNγ, and TNFα) were measured. General toxicity of the therapy was monitored by measuring weight loss. At the end of each treatment, mouse blood was collected to test for anemia, number of white blood cells and CAR T cell proliferation. Mouse organs were also evaluated.
# MDA-MB-231 (FR+) cells = test: Anti-tumor efficacy of CAR T cells in vivo, MDA-MB-231 (FR+) xenograft; set-up: species or system mice; settings: during treatment, FIG. 7B
# Procedure: as §2
# MDA-MB-231(FR+) = test: Two tumors on separate flanks of the same mouse, MDA-MB-231 tumor; format: in vivo, mice
# Description: (§3) In order to study whether same anti-FITC CAR T cell can eradicate mixture of heterogeneous cancer cells with cocktail of FITC-ligands, immunodeficient NSG mice (Jackson laboratory) were utilized for the in vivo study. Two different cancer cell lines (e.g. MDA-MB-231(FR+) and HEK(NK1R+)) were implanted into separate flanks on the same mouse. Then, anti-FITC CAR T cell (10^7 cells) was introduced by intravenous injection when tumor volumes reached about 50-100 mm^3. In addition, either a mixture of FITC-ligands (i.e. FITC-PEG12-Folate (500 nmole/kg) and FITC-PEG11-NK1R (500 nmole/kg)), single FITC-PEG11-NK-1R (500 nmole/kg) or PBS was introduced every other day by intravenous injection. The anti-tumor efficacy of CAR T cell with FITC-ligands was analyzed by measuring tumor volume at every other day.
# HEK(NK1R+) = test: Two tumors on separate flanks of the same mouse, HEK tumor; format: in vivo, mice
# Description: as §3
# [3] = anti-FITC CAR T cell (10^7 cells) + both FITC-PEG11-NK1R and FITC-PEG12-Folate, 500 nmole/kg each, i.v. every other day, FIG. 19C
# [4] = anti-FITC CAR T cell (10^7 cells) + only FITC-PEG11-NK1R 500 nmole/kg i.v. every other day, FIG. 19B
"blood indices (cytokine storm) (HEK293 (NK1R+) cells [2]; HEK-NK1R model, 500 nmoles/kg, FIG. 9)",Compound,CAR T cell cytotoxicity to tumor cells as a function of E:T ratio (KB (FR+) cells),cytotoxicity of CAR T cells (activation) (LNCaP (PSMA+) cells),cytotoxicity of CAR T cells (activation) (HEK293 (NK1R+) cells [1]),"tumor size (HEK293 (NK1R+) cells [2]; NSG mice, CAR T cells + conjugate 500 nmol/kg i.v. every other day, FIG. 5A)","body weight (HEK293 (NK1R+) cells [2]; NSG mice, CAR T cells + conjugate, FIG. 5B)","harvested organs, indications of cytokine release syndrome (HEK293 (NK1R+) cells [2]; after two weeks of therapy, versus control group, FIGS. 6A-B)","percentage of CAR T cells in human T cells (HEK293 (NK1R+) cells [2]; post CAR T cell injection along with conjugate, FIG. 5C)",body weight (MDA-MB-231 (FR+) cells),MDA-MB-231 tumor volume (MDA-MB-231(FR+); [3]),MDA-MB-231 tumor volume (MDA-MB-231(FR+); [4]),HEK (NK1R) tumor volume (HEK(NK1R+); [3]),HEK (NK1R) tumor volume (HEK(NK1R+); [4])
–,O=C(O)CC[C@H](NC(=O)N[C@@H](CCC(=O)NCCCCCCCC(=O)N[C@@H](Cc1ccccc1)C(=O)N[C@@H](Cc1ccccc1)C(=O)NCCNC(=S)Nc1ccc(-c2c3ccc(=O)cc-3oc3cc(O)ccc23)c(C(=O)O)c1)C(=O)O)C(=O)O [FITC-DUPA],a function of the E:T ratio,greater activation than using FITC-Folate or in the absence of a conjugate,–,–,–,–,–,–,–,–,–,–
a cytokine storm had not occurred,O=C(CN1CCC[C@H](OCc2cc(C(F)(F)F)cc(C(F)(F)F)c2)[C@@H]1c1ccccc1)NCCOCCOCCOCCOCCOCCOCCOCCOCCOCCOCCOCCNC(=S)Nc1ccc(-c2c3ccc(=O)cc-3oc3cc(O)ccc23)c(C(=O)O)c1 [FITC-PEG11-NK1],–,–,greater than activation using FITC-Folate or in the absence of a conjugate,decreased,unchanged relative to the control mouse,appeared normal in size with no indications of cytokine release syndrome,increased,unchanged during treatment,eliminated,continued growing,eliminated,eradicated
